Converted amounts (≈) assume the structure as drawn. Bridge positions count the residues as written; N and C are the ends. Square brackets hold non-standard residues; d marks the D form. Peptide text beside a SMILES is read from it. * marks the point of attachment. Heptanoyl(6-Me) = CC(C)CCCCC(=O)*; dNle = CCCC[C@@H](N)C(=O)O; X1 = CC[C@H](C)CCCCC(=O)*; dDab = NCC[C@@H](N)C(=O)O; Octanoyl = CCCCCCCC(=O)*; Orn = NCCC[C@H](N)C(=O)O; Dab = NCC[C@H](N)C(=O)O
What was measured:
Acinetobacter baumannii [1] = assay: Antibacterial activity against Acinetobacter baumannii NCTC 13304 (OXA-27) assessed as inhibition of bacterial growth incubated for 16 to 20 hrs by CLSI protocol based broth microdilution method; format: functional; details: time 16-20 hrs
Escherichia coli [2] = assay: Antibacterial activity against Escherichia coli ATCC BAA-2523 assessed as inhibition of bacterial growth incubated for 16 to 20 hrs by CLSI protocol based broth microdilution method; format: functional; details: time 16-20 hrs
Klebsiella pneumoniae [3] = assay: Antibacterial activity against carbapenem-resistant Klebsiella pneumoniae clinical isolate KPN+19-15 assessed as inhibition of bacterial growth incubated for 16 to 20 hrs by CLSI protocol based broth microdilution method; format: functional; details: time 16-20 hrs
Klebsiella pneumoniae [4] = assay: Antibacterial activity against carbapenem-resistant Klebsiella pneumoniae ATCC BAA-1705 assessed as inhibition of bacterial growth incubated for 16 to 20 hrs by CLSI protocol based broth microdilution method; format: functional; details: time 16-20 hrs
Pseudomonas aeruginosa [5] = assay: Antibacterial activity against carbapenem-resistant Pseudomonas aeruginosa clinical isolate 19-3 assessed as inhibition of bacterial growth incubated for 16 to 20 hrs by CLSI protocol based broth microdilution method; format: functional; details: time 16-20 hrs
Acinetobacter baumannii [6] = assay: Antibacterial activity against carbapenem-sensitive Acinetobacter baumannii clinical isolate 19-1 assessed as inhibition of bacterial growth incubated for 16 to 20 hrs by CLSI protocol based broth microdilution method; format: functional; details: time 16-20 hrs
Escherichia coli [7] = assay: Antibacterial activity against carbapenem-resistant Escherichia coli ATCC BAA-2340 assessed as inhibition of bacterial growth incubated for 16 to 20 hrs by CLSI protocol based broth microdilution method; format: functional; details: time 16-20 hrs
Pseudomonas aeruginosa [8] = assay: Antibacterial activity against Pseudomonas aeruginosa ATCC 27853 assessed as inhibition of bacterial growth incubated for 16 to 20 hrs by CLSI protocol based broth microdilution method; format: functional; details: time 16-20 hrs
[9] = Renal cytotoxicity against HK-2 cells incubated for 72 hrs by CCK8 assay; format: toxicity, cell-based; details: human

Compound | MIC (Acinetobacter baumannii [1]) [µg/mL] | MIC (Escherichia coli [2]) [µg/mL] | MIC (Klebsiella pneumoniae [3]) [µg/mL] | MIC (Klebsiella pneumoniae [4]) [µg/mL] | MIC (Pseudomonas aeruginosa [5]) [µg/mL] | MIC (Acinetobacter baumannii [6]) [µg/mL] | MIC (Escherichia coli [7]) [µg/mL] | MIC (Pseudomonas aeruginosa [8]) [µg/mL] | IC50 at 72 h [9] [µg/mL]
CCCCCCCC(=O)N[C@@H](CCN)C(=O)N[C@H](C(=O)N[C@@H](CCN)C(=O)N[C@H]1CCNC(=O)[C@H]([C@@H](C)O)NC(=O)[C@H](CCN)NC(=O)[C@H](CCN)NC(=O)[C@H]([C@@H](C)O)NC(=O)[C@@H](Cc2ccccc2)NC(=O)[C@H](CCN)NC1=O)[C@@H](C)O (Octanoyl-[Dab]T[Dab][Dab][Dab][dF]T[Dab][Dab]T; lactam 4-C) | 0.25 (≈ 0.212 µM) | ≤ 0.03 | ≤ 0.03 | 0.5 (≈ 0.425 µM) | 0.5 (≈ 0.425 µM) | 0.5 (≈ 0.425 µM) | 0.06 (≈ 0.051 µM) | 0.5 (≈ 0.425 µM) | 
CCCCCCCC(=O)N[C@@H](CCN)C(=O)N[C@H](C(=O)N[C@@H](CCN)C(=O)N[C@H]1CCNC(=O)[C@H]([C@@H](C)O)NC(=O)[C@H](CCN)NC(=O)[C@H](CCN)NC(=O)[C@H]([C@@H](C)O)NC(=O)[C@@H](CC(C)C)NC(=O)[C@H](CCN)NC1=O)[C@@H](C)O (Octanoyl-[Dab]T[Dab][Dab][Dab][dL]T[Dab][Dab]T; lactam 4-C) [listing 1 of 2 here] |  |  |  |  |  |  |  |  | > 500
CCCCCCCC(=O)N[C@@H](CCN)C(=O)N[C@H](C(=O)N[C@@H](CCN)C(=O)N[C@H]1CCNC(=O)[C@H]([C@@H](C)O)NC(=O)[C@H](CCN)NC(=O)[C@H](CCN)NC(=O)[C@H]([C@@H](C)O)NC(=O)[C@@H](CC(C)C)NC(=O)[C@H](CCN)NC1=O)[C@@H](C)O (Octanoyl-[Dab]T[Dab][Dab][Dab][dL]T[Dab][Dab]T; lactam 4-C) [listing 2 of 2 here] | 1 (≈ 0.875 µM) | 0.25 (≈ 0.219 µM) | 0.25 (≈ 0.219 µM) | 2 (≈ 1.75 µM) | 0.5 (≈ 0.437 µM) | 1 (≈ 0.875 µM) | 0.06 (≈ 0.0525 µM) | 1 (≈ 0.875 µM) | 
CCCCCCCC(=O)N[C@@H](CCN)C(=O)N[C@H](C(=O)N[C@@H](CCN)C(=O)N[C@H]1CCNC(=O)[C@H]([C@@H](C)O)NC(=O)[C@H](CCN)NC(=O)[C@H](CCN)NC(=O)[C@H]([C@@H](C)O)NC(=O)[C@@H](CCCC)NC(=O)[C@H](CCN)NC1=O)[C@@H](C)O (Octanoyl-[Dab]T[Dab][Dab][Dab][dNle]T[Dab][Dab]T; lactam 4-C) [listing 1 of 2 here] |  |  |  |  |  |  |  |  | > 500
CCCCCCCC(=O)N[C@@H](CCN)C(=O)N[C@H](C(=O)N[C@@H](CCN)C(=O)N[C@H]1CCNC(=O)[C@H]([C@@H](C)O)NC(=O)[C@H](CCN)NC(=O)[C@H](CCN)NC(=O)[C@H]([C@@H](C)O)NC(=O)[C@@H](CCCC)NC(=O)[C@H](CCN)NC1=O)[C@@H](C)O (Octanoyl-[Dab]T[Dab][Dab][Dab][dNle]T[Dab][Dab]T; lactam 4-C) [listing 2 of 2 here] | 1 (≈ 0.875 µM) | 0.125 (≈ 0.109 µM) | 0.125 (≈ 0.109 µM) | 2 (≈ 1.75 µM) | 1 (≈ 0.875 µM) | 1 (≈ 0.875 µM) | 0.125 (≈ 0.109 µM) | 1 (≈ 0.875 µM) | 
CC[C@H](C)CCCCC(=O)N[C@@H](CCN)C(=O)N[C@H](C(=O)N[C@H](CCN)C(=O)N[C@H]1CCNC(=O)[C@H]([C@@H](C)O)NC(=O)[C@H](CCN)NC(=O)[C@H](CCN)NC(=O)[C@H]([C@@H](C)O)NC(=O)[C@@H](Cc2ccccc2)NC(=O)[C@H](CCN)NC1=O)[C@@H](C)O (X1-[Dab]T[dDab][Dab][Dab][dF]T[Dab][Dab]T; lactam 4-C) | ≤ 0.03 | ≤ 0.03 | ≤ 0.03 | ≤ 0.03 | 1 (≈ 0.839 µM) | ≤ 0.03 | ≤ 0.03 | 1 (≈ 0.839 µM) | 371 (≈ 311 µM)
CC(C)CCCCC(=O)N[C@@H](CCN)C(=O)N[C@H](C(=O)N[C@@H](CCN)C(=O)N[C@H]1CCNC(=O)[C@H]([C@@H](C)O)NC(=O)[C@H](CCN)NC(=O)[C@H](CCN)NC(=O)[C@H]([C@@H](C)O)NC(=O)[C@@H](Cc2ccccc2)NC(=O)[C@H](CCN)NC1=O)[C@@H](C)O ({Heptanoyl(6-Me)}-[Dab]T[Dab][Dab][Dab][dF]T[Dab][Dab]T; lactam 4-C) [listing 1 of 2 here] |  |  |  |  |  |  |  |  | > 500
CC(C)CCCCC(=O)N[C@@H](CCN)C(=O)N[C@H](C(=O)N[C@@H](CCN)C(=O)N[C@H]1CCNC(=O)[C@H]([C@@H](C)O)NC(=O)[C@H](CCN)NC(=O)[C@H](CCN)NC(=O)[C@H]([C@@H](C)O)NC(=O)[C@@H](Cc2ccccc2)NC(=O)[C@H](CCN)NC1=O)[C@@H](C)O ({Heptanoyl(6-Me)}-[Dab]T[Dab][Dab][Dab][dF]T[Dab][Dab]T; lactam 4-C) [listing 2 of 2 here] | 0.25 (≈ 0.212 µM) | 0.06 (≈ 0.051 µM) | ≤ 0.03 | 0.5 (≈ 0.425 µM) | 1 (≈ 0.849 µM) | 0.5 (≈ 0.425 µM) | ≤ 0.03 | 1 (≈ 0.849 µM) | 
CC(C)CCCCC(=O)N[C@@H](CCN)C(=O)N[C@H](C(=O)N[C@@H](CCCN)C(=O)N[C@H]1CCNC(=O)[C@H]([C@@H](C)O)NC(=O)[C@H](CCN)NC(=O)[C@H](CCN)NC(=O)[C@H]([C@@H](C)O)NC(=O)[C@@H](Cc2ccccc2)NC(=O)[C@H](CCN)NC1=O)[C@@H](C)O ({Heptanoyl(6-Me)}-[Dab]T[Orn][Dab][Dab][dF]T[Dab][Dab]T; lactam 4-C) | 0.06 (≈ 0.0504 µM) | ≤ 0.03 | ≤ 0.03 | ≤ 0.03 | 0.25 (≈ 0.21 µM) | 0.125 (≈ 0.105 µM) | ≤ 0.03 | ≤ 0.03 | > 500

From ChEMBL document CHEMBL6078630, “Design, synthesis, and bioactivity investigation of novel cyclic lipopeptide antibiotics targeting top-priority multidrug-resistant gram-negative bacteria” (Eur J Med Chem, 2024)
